This is an account of results in ChEMBL document CHEMBL1124903 (J Med Chem, 1990).

The data set can be described thus: Half life (T 1/2) estimated in the absence of light, in 50 mM Tris-HCl 1 mM EDTA (pH 7.4) buffer. The class given is ADME. Particulars: 50 mM Tris-HCl 1 mM EDTA buffer.

Usually half-life stands for the time in which the quantity being followed falls by half. As for `CC(c1ccc(Cl)cc1)N1CCC2(CC1)C(=O)NCN2c1ccc(N=[N+]=[N-])cc1` (centres undefined), the half-life is more than 24 h.

As to `CN(c1ccc(N=[N+]=[N-])cc1)C1CCC2(O)C3Cc4ccc(O)c5c4C2(CCN3CC2CC2)C1O5` (centres undefined), the half-life is more than 24 h.

For the compound `CC(c1ccc(Cl)cc1)N1CCC2(CC1)C(=O)NCN2c1ccc([N+]#N)cc1` (centres undefined), the half-life was 5 h.

For the compound `CN(c1ccc([N+]#N)cc1)C1CCC2(O)C3Cc4ccc(O)c5c4C2(CCN3CC2CC2)C1O5` (centres undefined) [NALTREXONEDIAZONIUM], the half-life is 5 h.
